From ChEMBL document CHEMBL4507282, “Data for DCP probe BI-1950” (2021)

Tests used:
[1] = target: Macrophage colony-stimulating factor 1 receptor (Homo sapiens) (UniProt P07333); settings: Compound concentration 1000.0 nM
[2] = target: Tyrosine-protein kinase SYK (Homo sapiens) (UniProt P43405); settings: Compound concentration 1000.0 nM
[3] = system: Tyrosine-protein kinase ABL1 (Homo sapiens), P00519 [Y253F]; settings: Compound concentration 1000.0 nM
[4] = target: Dual specificity protein kinase CLK1 (Homo sapiens) (UniProt P49759); settings: Compound concentration 1000.0 nM
[5] = target: Mitogen-activated protein kinase kinase kinase 2 (Homo sapiens) (UniProt Q9Y2U5); settings: Compound concentration 1000.0 nM
Chain of Mitogen-activated protein kinase kinase kinase 2 (Homo sapiens) (Q9Y2U5 whole entry): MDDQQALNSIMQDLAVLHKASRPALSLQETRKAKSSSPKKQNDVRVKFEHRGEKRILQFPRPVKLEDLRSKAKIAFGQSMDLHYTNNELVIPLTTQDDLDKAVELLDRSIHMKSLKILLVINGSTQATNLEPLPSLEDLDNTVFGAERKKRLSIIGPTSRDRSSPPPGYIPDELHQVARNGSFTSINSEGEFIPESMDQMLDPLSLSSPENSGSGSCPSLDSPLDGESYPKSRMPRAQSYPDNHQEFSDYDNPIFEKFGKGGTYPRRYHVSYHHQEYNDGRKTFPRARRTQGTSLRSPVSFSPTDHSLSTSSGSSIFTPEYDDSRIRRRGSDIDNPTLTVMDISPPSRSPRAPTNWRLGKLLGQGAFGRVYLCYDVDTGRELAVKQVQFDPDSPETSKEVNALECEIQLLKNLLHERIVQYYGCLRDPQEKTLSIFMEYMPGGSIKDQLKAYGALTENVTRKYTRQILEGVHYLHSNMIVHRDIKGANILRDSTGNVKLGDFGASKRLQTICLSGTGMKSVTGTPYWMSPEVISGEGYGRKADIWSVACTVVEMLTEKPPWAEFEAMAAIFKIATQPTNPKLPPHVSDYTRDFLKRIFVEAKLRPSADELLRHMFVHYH

[6] = target: Calcium/calmodulin-dependent protein kinase type 1 (Homo sapiens) (UniProt Q14012); settings: Compound concentration 1000.0 nM
[7] = system: Receptor-type tyrosine-protein kinase FLT3 (Homo sapiens), P36888 [R834Q]; settings: Compound concentration 1000.0 nM
[8] = target: Calcium/calmodulin-dependent protein kinase type II subunit gamma (Homo sapiens) (UniProt Q13555); settings: Compound concentration 1000.0 nM
Chain of Calcium/calmodulin-dependent protein kinase type II subunit gamma (Homo sapiens) (Q13555 whole entry): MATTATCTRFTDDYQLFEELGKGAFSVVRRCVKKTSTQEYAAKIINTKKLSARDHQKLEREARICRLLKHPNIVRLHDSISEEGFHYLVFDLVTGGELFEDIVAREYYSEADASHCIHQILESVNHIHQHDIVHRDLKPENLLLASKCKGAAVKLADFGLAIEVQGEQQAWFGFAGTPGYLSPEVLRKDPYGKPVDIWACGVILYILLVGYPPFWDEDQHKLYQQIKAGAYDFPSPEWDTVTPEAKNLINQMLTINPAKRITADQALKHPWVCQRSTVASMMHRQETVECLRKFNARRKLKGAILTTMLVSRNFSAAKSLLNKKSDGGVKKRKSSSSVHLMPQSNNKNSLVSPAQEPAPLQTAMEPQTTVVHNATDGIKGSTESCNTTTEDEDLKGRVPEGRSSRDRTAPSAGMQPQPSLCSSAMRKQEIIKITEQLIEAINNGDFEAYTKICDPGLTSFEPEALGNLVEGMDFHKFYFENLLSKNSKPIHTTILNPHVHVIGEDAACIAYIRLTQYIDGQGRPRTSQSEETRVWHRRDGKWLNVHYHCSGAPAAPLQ

[9] = target: Mitogen-activated protein kinase 11 (Homo sapiens) (UniProt Q15759); settings: Compound concentration 1000.0 nM
[10] = target: Serine/threonine-protein kinase DCLK2 (Homo sapiens) (UniProt Q8N568); settings: Compound concentration 1000.0 nM
[11] = system: Tyrosine-protein kinase ABL1 (Homo sapiens), P00519 [H396P]; settings: Compound concentration 1000.0 nM
[12] = target: Histamine H4 receptor (Homo sapiens) (UniProt Q9H3N8); settings: Compound concentration 10.0 uM
Chain of Histamine H4 receptor (Homo sapiens) (Q9H3N8 whole entry): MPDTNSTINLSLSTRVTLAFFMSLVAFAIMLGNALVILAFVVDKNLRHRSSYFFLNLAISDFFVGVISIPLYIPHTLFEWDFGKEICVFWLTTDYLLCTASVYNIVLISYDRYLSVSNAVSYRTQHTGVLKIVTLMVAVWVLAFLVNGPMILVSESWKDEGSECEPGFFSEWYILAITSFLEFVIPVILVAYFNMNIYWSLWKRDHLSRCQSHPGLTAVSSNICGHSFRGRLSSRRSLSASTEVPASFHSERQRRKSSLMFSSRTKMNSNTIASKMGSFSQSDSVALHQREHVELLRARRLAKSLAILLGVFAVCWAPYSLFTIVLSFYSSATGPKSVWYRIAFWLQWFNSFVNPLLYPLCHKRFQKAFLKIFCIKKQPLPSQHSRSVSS

[13] = target: Dual specificity tyrosine-phosphorylation-regulated kinase 1A (Homo sapiens) (UniProt Q13627); settings: Compound concentration 1000.0 nM
[14] = target: Serine/threonine-protein kinase Nek1 (Homo sapiens) (UniProt Q96PY6); settings: Compound concentration 1000.0 nM
[15] = target: Maternal embryonic leucine zipper kinase (Homo sapiens) (UniProt Q14680); settings: Compound concentration 1000.0 nM
[16] = target: Cyclin-dependent kinase 9 (Homo sapiens) (UniProt P50750); settings: Compound concentration 1000.0 nM
[17] = target: Serine/threonine-protein kinase 10 (Homo sapiens) (UniProt O94804); settings: Compound concentration 1000.0 nM
[18] = system: Proto-oncogene tyrosine-protein kinase receptor Ret (Homo sapiens), P07949 [V804L]; settings: Compound concentration 1000.0 nM
[19] = system: Receptor-type tyrosine-protein kinase FLT3 (Homo sapiens), P36888 [D835V]; settings: Compound concentration 1000.0 nM
[20] = target: Tyrosine-protein kinase JAK2 (Homo sapiens) (UniProt O60674); settings: Compound concentration 1000.0 nM
[21] = target: Histamine H2 receptor (Homo sapiens) (UniProt P25021); settings: Compound concentration 10.0 uM
[22] = system: Mast/stem cell growth factor receptor Kit (Homo sapiens), P10721 [D816H]; settings: Compound concentration 1000.0 nM
[23] = system: Phosphatidylinositol 4,5-bisphosphate 3-kinase catalytic subunit alpha isoform (Homo sapiens), P42336 [H1047L]; settings: Compound concentration 1000.0 nM
[24] = target: Ephrin type-A receptor 7 (Homo sapiens) (UniProt Q15375); settings: Compound concentration 1000.0 nM
[25] = target: Mitogen-activated protein kinase kinase kinase 5 (Homo sapiens) (UniProt Q99683); settings: Compound concentration 1000.0 nM
[26] = system: Mast/stem cell growth factor receptor Kit (Homo sapiens), P10721 [V559D,T670I]; settings: Compound concentration 1000.0 nM
[27] = target: NUAK family SNF1-like kinase 2 (Homo sapiens) (UniProt Q9H093); settings: Compound concentration 1000.0 nM
[28] = target: Serine/threonine-protein kinase PAK 1 (Homo sapiens) (UniProt Q13153); settings: Compound concentration 1000.0 nM
[29] = target: Serine/threonine-protein kinase TAO3 (Homo sapiens) (UniProt Q9H2K8); settings: Compound concentration 1000.0 nM
Chain of Serine/threonine-protein kinase TAO3 (Homo sapiens) (Q9H2K8 whole entry, canonical isoform): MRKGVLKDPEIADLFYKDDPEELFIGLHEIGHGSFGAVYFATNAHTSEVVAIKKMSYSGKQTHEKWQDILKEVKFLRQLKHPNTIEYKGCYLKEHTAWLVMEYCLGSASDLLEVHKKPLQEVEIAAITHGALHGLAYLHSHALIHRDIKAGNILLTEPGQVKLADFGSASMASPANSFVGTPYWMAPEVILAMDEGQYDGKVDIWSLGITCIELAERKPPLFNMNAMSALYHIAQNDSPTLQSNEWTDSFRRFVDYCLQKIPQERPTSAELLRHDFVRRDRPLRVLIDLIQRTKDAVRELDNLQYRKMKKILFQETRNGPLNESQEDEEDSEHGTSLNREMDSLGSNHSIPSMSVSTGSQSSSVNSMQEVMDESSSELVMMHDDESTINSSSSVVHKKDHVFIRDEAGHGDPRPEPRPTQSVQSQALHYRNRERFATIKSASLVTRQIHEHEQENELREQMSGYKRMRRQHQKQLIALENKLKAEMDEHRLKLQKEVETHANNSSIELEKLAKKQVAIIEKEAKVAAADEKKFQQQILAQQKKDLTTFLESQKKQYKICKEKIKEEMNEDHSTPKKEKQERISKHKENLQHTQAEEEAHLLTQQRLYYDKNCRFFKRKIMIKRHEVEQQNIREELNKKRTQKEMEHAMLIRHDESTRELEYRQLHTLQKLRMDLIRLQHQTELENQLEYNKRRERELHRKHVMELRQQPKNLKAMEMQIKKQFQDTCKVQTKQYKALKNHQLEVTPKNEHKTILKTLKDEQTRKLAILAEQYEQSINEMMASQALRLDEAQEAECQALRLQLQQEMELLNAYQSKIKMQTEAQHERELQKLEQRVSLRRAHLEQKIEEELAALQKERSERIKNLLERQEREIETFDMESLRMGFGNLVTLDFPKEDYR

[30] = system: Phosphatidylinositol 4,5-bisphosphate 3-kinase catalytic subunit alpha isoform (Homo sapiens), P42336 [E542K]; settings: Compound concentration 1000.0 nM
[31] = target: Ribosomal protein S6 kinase alpha-6 (Homo sapiens) (UniProt Q9UK32); settings: Compound concentration 1000.0 nM
[32] = system: Phosphatidylinositol 4,5-bisphosphate 3-kinase catalytic subunit alpha isoform (Homo sapiens), P42336 [M1043I]; settings: Compound concentration 1000.0 nM
[33] = target: Cyclin-G-associated kinase (Homo sapiens) (UniProt O14976); settings: Compound concentration 1000.0 nM
Chain of Cyclin-G-associated kinase (Homo sapiens) (O14976 whole entry): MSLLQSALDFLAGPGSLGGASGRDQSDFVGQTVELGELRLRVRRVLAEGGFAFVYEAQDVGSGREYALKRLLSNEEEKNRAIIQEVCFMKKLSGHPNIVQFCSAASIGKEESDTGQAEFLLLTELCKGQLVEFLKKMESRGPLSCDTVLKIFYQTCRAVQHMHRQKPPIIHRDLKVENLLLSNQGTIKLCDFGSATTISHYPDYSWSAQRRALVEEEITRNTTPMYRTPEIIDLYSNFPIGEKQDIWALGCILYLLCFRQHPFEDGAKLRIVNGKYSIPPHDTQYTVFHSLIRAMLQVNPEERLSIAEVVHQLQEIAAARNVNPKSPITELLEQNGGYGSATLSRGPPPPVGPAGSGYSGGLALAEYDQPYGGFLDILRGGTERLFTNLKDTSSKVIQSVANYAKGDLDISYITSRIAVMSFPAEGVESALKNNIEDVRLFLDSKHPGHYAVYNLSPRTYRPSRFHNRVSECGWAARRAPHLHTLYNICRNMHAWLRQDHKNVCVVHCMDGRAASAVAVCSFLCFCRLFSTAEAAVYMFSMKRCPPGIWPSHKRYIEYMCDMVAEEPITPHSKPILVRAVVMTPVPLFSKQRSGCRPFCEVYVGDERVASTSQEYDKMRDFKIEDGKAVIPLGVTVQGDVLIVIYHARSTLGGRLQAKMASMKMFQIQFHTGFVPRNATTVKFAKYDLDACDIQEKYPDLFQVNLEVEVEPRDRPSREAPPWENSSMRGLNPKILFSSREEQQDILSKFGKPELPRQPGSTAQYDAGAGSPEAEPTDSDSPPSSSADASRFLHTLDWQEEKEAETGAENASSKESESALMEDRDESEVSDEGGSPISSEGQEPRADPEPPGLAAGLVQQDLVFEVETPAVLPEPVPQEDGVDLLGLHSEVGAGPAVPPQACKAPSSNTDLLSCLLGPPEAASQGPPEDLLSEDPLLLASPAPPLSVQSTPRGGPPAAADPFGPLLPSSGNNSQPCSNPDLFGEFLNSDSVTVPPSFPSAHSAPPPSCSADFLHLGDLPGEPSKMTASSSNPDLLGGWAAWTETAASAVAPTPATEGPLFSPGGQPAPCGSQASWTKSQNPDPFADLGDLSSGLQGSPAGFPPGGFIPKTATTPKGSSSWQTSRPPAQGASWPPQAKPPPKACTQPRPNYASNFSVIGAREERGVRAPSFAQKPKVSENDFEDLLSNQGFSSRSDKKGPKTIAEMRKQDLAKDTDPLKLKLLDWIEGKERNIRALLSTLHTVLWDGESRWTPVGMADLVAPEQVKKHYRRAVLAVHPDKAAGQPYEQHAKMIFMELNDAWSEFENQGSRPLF

[34] = target: Dual specificity protein kinase CLK3 (Homo sapiens) (UniProt P49761); settings: Compound concentration 1000.0 nM
[35] = target: Serine/threonine-protein kinase 4 (Homo sapiens) (UniProt Q13043); settings: Compound concentration 1000.0 nM
[36] = target: Serine/threonine-protein kinase ULK1 (Homo sapiens) (UniProt O75385); settings: Compound concentration 1000.0 nM
[37] = target: Serine/threonine-protein kinase OSR1 (Homo sapiens) (UniProt O95747); settings: Compound concentration 1000.0 nM
[38] = target: Serine/threonine-protein kinase WNK1 (Homo sapiens) (UniProt Q9H4A3); settings: Compound concentration 1000.0 nM
[39] = target: Serine/threonine-protein kinase 25 (Homo sapiens) (UniProt O00506); settings: Compound concentration 1000.0 nM
[40] = target: Serine/threonine-protein kinase TAO2 (Homo sapiens) (UniProt Q9UL54); settings: Compound concentration 1000.0 nM
[41] = system: Epidermal growth factor receptor (Homo sapiens), P00533 [UNDEFINED MUTATION]; settings: Compound concentration 1000.0 nM
[42] = target: Membrane-associated tyrosine- and threonine-specific cdc2-inhibitory kinase (Homo sapiens) (UniProt Q99640); settings: Compound concentration 1000.0 nM
Chain of Membrane-associated tyrosine- and threonine-specific cdc2-inhibitory kinase (Homo sapiens) (Q99640 whole entry): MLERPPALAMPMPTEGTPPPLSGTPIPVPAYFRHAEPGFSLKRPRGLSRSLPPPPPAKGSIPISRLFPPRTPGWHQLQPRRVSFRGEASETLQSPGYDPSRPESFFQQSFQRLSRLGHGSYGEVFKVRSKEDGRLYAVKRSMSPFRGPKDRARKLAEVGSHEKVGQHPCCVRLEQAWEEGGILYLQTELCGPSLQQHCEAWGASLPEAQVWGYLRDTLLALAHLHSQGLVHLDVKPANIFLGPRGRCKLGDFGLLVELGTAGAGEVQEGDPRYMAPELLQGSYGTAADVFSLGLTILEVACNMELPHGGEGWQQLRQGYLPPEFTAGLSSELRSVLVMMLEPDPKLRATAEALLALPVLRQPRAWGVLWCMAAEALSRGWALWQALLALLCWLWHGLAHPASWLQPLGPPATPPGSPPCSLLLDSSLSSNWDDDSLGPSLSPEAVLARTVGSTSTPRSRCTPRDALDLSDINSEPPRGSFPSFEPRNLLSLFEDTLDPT

[43] = target: Alpha-1B adrenergic receptor (Homo sapiens) (UniProt P35368); settings: Compound concentration 10.0 uM
Chain of Alpha-1B adrenergic receptor (Homo sapiens) (P35368 whole entry): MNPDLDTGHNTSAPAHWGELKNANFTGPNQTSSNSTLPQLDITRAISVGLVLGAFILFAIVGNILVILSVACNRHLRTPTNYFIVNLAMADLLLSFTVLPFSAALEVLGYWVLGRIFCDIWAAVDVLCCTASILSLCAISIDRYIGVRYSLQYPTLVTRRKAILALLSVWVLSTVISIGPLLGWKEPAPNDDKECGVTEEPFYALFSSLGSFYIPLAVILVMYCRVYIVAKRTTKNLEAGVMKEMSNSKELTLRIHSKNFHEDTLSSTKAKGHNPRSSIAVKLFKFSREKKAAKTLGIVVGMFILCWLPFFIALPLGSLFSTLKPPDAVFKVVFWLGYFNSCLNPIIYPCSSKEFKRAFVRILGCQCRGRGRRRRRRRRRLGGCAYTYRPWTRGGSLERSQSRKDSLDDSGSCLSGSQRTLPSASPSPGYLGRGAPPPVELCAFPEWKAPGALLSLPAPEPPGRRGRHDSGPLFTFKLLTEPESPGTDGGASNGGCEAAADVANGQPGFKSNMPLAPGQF

[44] = target: Serine/threonine-protein kinase 36 (Homo sapiens) (UniProt Q9NRP7); settings: Compound concentration 1000.0 nM

C[C@@]1(Cc2ccc(C#N)cc2)C(=O)N(c2cc(Cl)cc(Cl)c2)c2ncc(C(=O)NC3(c4nc(C5CCC5)no4)CC3)n21 [BI 9446]
inactive: residual activity [1] 100% | residual activity [2] 100% | residual activity [3] 95% | residual activity [4] 100% | residual activity [5] 100% | residual activity [6] 93% | residual activity [7] 100% | residual activity [8] 100% | residual activity [9] 100% | residual activity [10] 100% | residual activity [11] 96% | inhibition [12] 27.6% | residual activity [13] 99% | residual activity [15] 89% | residual activity [16] 100% | residual activity [17] 100% | residual activity [18] 100% | residual activity [19] 100% | residual activity [20] 100% | inhibition [21] 11% | residual activity [22] 100% | residual activity [23] 96% | residual activity [24] 92% | residual activity [25] 100% | residual activity [26] 100% | residual activity [27] 100% | residual activity [28] 99% | residual activity [29] 91% | residual activity [30] 83% | residual activity [31] 100% | residual activity [32] 100% | residual activity [33] 100% | residual activity [34] 100% | residual activity [35] 92% | residual activity [36] 100% | residual activity [37] 84% | residual activity [38] 99% | residual activity [39] 100% | residual activity [40] 100% | residual activity [41] 97% | residual activity [42] 75% | inhibition [43] 23.8% | residual activity [44] 100%
active: residual activity [14] 48%

C[C@H](NC(=O)c1cnc2n1[C@](C)(Cc1ccc(C#N)cc1)C(=O)N2c1cc(Cl)c(F)c(Cl)c1)C(=O)NC1(c2ccccn2)CC1 [BI 1950]
inactive: residual activity [1] 100% | residual activity [2] 100% | residual activity [3] 100% | residual activity [4] 86% | residual activity [5] 100% | residual activity [6] 96% | residual activity [7] 90% | residual activity [8] 100% | residual activity [9] 100% | residual activity [10] 100% | residual activity [11] 91% | inhibition [12] 9.55% | residual activity [13] 100% | residual activity [14] 59% | residual activity [15] 86% | residual activity [16] 100% | residual activity [17] 100% | residual activity [18] 100% | residual activity [19] 100% | residual activity [20] 100% | inhibition [21] 11.8% | residual activity [22] 100% | residual activity [23] 81% | residual activity [24] 84% | residual activity [25] 92% | residual activity [26] 100% | residual activity [27] 100% | residual activity [28] 95% | residual activity [29] 88% | residual activity [30] 100% | residual activity [31] 91% | residual activity [32] 100% | residual activity [33] 92% | residual activity [34] 96% | residual activity [35] 100% | residual activity [36] 100% | residual activity [37] 94% | residual activity [38] 100% | residual activity [39] 100% | residual activity [40] 92% | residual activity [41] 100% | residual activity [42] 79% | inhibition [43] 2.35% | residual activity [44] 100%
